Measurements: patent US9757462B2, “Combined pharmaceutical preparation” (Sapporo Medical University, priority 2010, dated 2017)

Assays:
AsPC-1 cells = assay: Impact of excessive mannose on transfection efficiency of fucosylated liposomes (flow cytometry); format: cell-based; settings: excessive amount of mannose
Experimental: Mannose is phosphorylated to mannose-6-phosphate by hexokinase, then converted to fructose-6 phosphate that is used in the glycolysis. However, 90% of the mannose taken into the body is excreted unchanged into urine within 30-60 min, and 99% of the remaining mannose is excreted within 8 hr.

[1] = Hematologic/biochemical analyses and adverse effects during the treatment period; format: in vivo, mouse
Experimental: In the preparation of subcutaneous model, AsPC-1 cells (2×10^6 cells) were seeded on the back side of a mouse (4-6 weeks old). Bioluminescence was measured from 0 to 4 days after injection, and the mice were randomly divided into multiple groups before starting the treatment. In vivo optical imaging was performed using Xenogen-IVIS-cooled […] optical system (Xenogen-IVIS). Bound CDD (such as CDDP in fucosylated liposomes) or free CDDP was in a dose of 2 mg/kg for each administration. Injection was performed twice in the first week, then twice in the second and third weeks. All the mice used […], sacrificed on the next day of the final injection prior to the final measurement of bioluminescence.
Samples were collected from mouse orbital venous plexus. In the table, WBC represents white blood cell count, RBC represents red blood cell, count, Hb represents hemoglobin concentration, PLT represents Platelet count, AST represents aspartate aminotransferase concentration, […], Bil represents bilirubin concentration, BS represents blood glucose, Cr represents creatinine concentration.
In pancreatic cancer model mice (AsPC-1), effects of suppression of tumor growth by CDDP, CDDP-encapsulated liposomes (F0), and CDDP-encapsulated liposomes (F50) were compared (FIG. 20). […] Tumor volumes were measured at 4, 8, 11, 15, 18 and 22 days after the transplant.

[2] = cited from earlier work
AsPC-1 = assay: 14C-fucose binding to cells
Experimental: (§1) In a 12-well culture plate, 1×10^5 cells were seeded and cultured overnight, and ^14C-fucose (specific activity: 55 mCi/mmol) diluted with BSA-PBS at a concentration of 0-200 nM was added to the cells and cultured at 4° C. for 1 hr. The cells were washed with cold BSA-PBS, lysed by 1% Triton X100/PBS-0.25% trypsin, and the radioactivity of the ^14C-fucose bound to the cell membrane was measured (FIGS. 2 and 3).
In another experiment, in a 12-well culture plate, 2×10^5 cells were seeded and cultured overnight, 10 nmol of ^14C-fucose (specific activity: 55 mCi/mmol) were added to the cells either singly or together with 1 pmol of fucose, and cultured at 4° C. for 1, 3, or 24 hr. The cells under each condition were washed with cold BSA-PBS, lysed by 1% Triton X100/PBS-0.25% trypsin, and the radioactivity of the ^14C-fucose was measured (FIG. 4).

PANC-1 = assay: 14C-fucose binding to cells; settings: 14C-fucose 0-200 nM, 4° C., 1 hr
Experimental: as §1

Compound | impact on the transfection efficiency of fucosylated liposomes (AsPC-1 cells) | adverse effect ([1]; 1 mg of mannose for a mouse) | adverse effects (as shown in Table 5) ([1]; treatment period) | mannose taken into the body excreted unchanged into urine ([2]; within 30-60 min) [%] | remaining mannose excreted ([2]; within 8 hr) [%] | binding of 14C-fucose in competition with non-labeled fucose (AsPC-1; 4° C. for 1, 3, or 24 hr) | binding of fucose to cells (AsPC-1; 14C-fucose 0-200 nM, 4° C., 1 hr) | affinity of fucose binding (AsPC-1; AsPC-1 compared with PANC-1) | binding of fucose to cells (PANC-1)
O=C[C@@H](O)[C@@H](O)[C@H](O)[C@H](O)CO [mannose, D-mannose] | no apparent impact was observed | no apparent adverse effect was observed | does not have any adverse effects | 90 | 99 | – | – | – | –
C[C@H](O)[C@@H](O)[C@@H](O)[C@H](O)C=O [fucose, L-fucose] | – | – | – | – | – | inhibited by non-labeled fucose | binds to AsPC-1 and PANC-1 via a receptor-like mechanism | affinity is higher in the fucosylated sugar chain high-producing cell line AsPC-1 | binds to AsPC-1 and PANC-1 via a receptor-like mechanism
